Measurements taken from patent US20200246298A1, “Composition for Preventing or Treating Asthma Comprising Fatty Acid as Active Ingredient” (Dongshin University Industry-Academy Cooperation, priority 2019, published 2020).

Legend:
Assay type in all cases: in vivo, BALB/c mice
TNF-α = test: RT-PCR analysis of lung, OVA-induced asthma; conditions: palmitic acid 5, 25, 50 mg/kg oral, FIG. 27
Procedure: (§1) In test groups, the animals determined to be healthy during the acclimation period were ranked by measuring the weight, and were randomly grouped so that the average weight of each group was uniform. The animals were divided into a total of 9 groups: a control group; a control group with OVA-induced asthma; a positive control group; groups administered with each of 50 mg/kg, 125 mg/kg and 250 mg/kg of oleic acid; and groups administered with each of 5 mg/kg, 25 mg/kg and 50 mg/kg of palmitic acid. The animals were sensitized via intraperitoneal injection of OVA once a week for 2 weeks after the acclimation period. During 5 days of week 3, dexamethasone (DEX) and the test substances oleic acid and palmitic acid were orally administered in the morning and 5% OVA solution was inhaled in the afternoon. The test substance was orally administered in an amount of 28 μL per weight (g) of the experimental animal, and OVA for sensitization was administered in a constant amount regardless of the weight. After 5 days of administration, autopsy was performed the next day.
(§2) In order to evaluate changes in the cDNA levels of IFN-γ, IL-12p40, IL-4, IL-5, IL-13, TNF-α, and IL-6, which are related to asthma induction, RT-PCR analysis was performed as in a previous study protocol (Lee et al., 2017). Total RNA was extracted from the lung using the RNeasy Mini Kit (Qiagen, Hilden, Germany) according to the manufacturer's instructions. Total RNA (100 ng) was used as a template for the reaction.
(§3) The RT-PCR cycles consisted of denaturation at 95° C. for 5 sec and annealing/extension at 65° C. for 30 sec for 40 cycles. The results were obtained using an Axioscope A1 (Carl Zeiss, Gottingen, Germany).

IL-6 [1] = test: RT-PCR analysis of lung, OVA-induced asthma; conditions: palmitic acid 5, 25, 50 mg/kg oral, FIG. 27
Procedure: as §1, §2, §3

IL-13 = test: RT-PCR analysis of lung, OVA-induced asthma; conditions: palmitic acid 5, 25, 50 mg/kg oral, FIG. 27
Procedure: as §1, §2, §3

IL-12p40 = test: ELISA analysis in lung tissue, OVA-induced asthma; conditions: palmitic acid 5, 25, 50 mg/kg oral, particularly the 25 mg/kg group, FIG. 21
Procedure: (§4) In test groups, the animals determined to be healthy during the acclimation period were ranked by measuring the weight, and were randomly grouped so that the average weight of each group was uniform. The animals were divided into a total of 9 groups: a control group; a control group with OVA-induced asthma; a positive control group; groups administered with each of 50 mg/kg, 125 mg/kg and 250 mg/kg of oleic acid; and groups administered with each of 5 mg/kg, 25 mg/kg and 50 mg/kg of palmitic acid. The animals were sensitized via intraperitoneal injection of OVA once a week for 2 weeks after the acclimation period. During 5 days of week 3, dexamethasone (DEX) and the test substances oleic acid and palmitic acid were orally administered in the morning and 5% OVA solution was inhaled in the afternoon. The test substance was orally administered in an amount of 28 μL per weight (g) of the experimental animal, and OVA for sensitization was administered in a constant amount regardless of the weight. After 5 days of administration, autopsy was performed the next day. To analyze the levels of IFN-γ, IL-12p40, IL-4, IL-5, IL-6, and TNF-α in lung tissue, OptEIA mouse ELISAs were purchased from BD Biosciences. The IL-13 levels were assessed using the AbFrontier Cymax mouse FT ISA kit (AbFrontier, Seoul, Korea). All assays were performed according to the manufacturers' guidelines. All lung samples were prepared by a lysis buffer made with a protease inhibitor cocktail and an RIPA buffer (Thermo Fisher Scientific). Aliquots of lung tissue from all groups were weighed and homogenized with lysis buffer. They were then centrifuged at 8,200 rpm for 15 minutes, and the supernatants were harvested and measured using a microplate reader (EZ Read 400, Biochrom, Cambourne, UK).

IFN-γ = test: ELISA analysis in lung tissue, OVA-induced asthma; conditions: palmitic acid 5, 25, 50 mg/kg oral, vs OVA, FIG. 20
Procedure: as §4

IL-6 [2] = test: ELISA analysis in lung tissue, OVA-induced asthma; conditions: palmitic acid 5, 25, 50 mg/kg oral, particularly the 50 mg/kg group
Procedure: as §4

IL-4 = test: ELISA analysis in lung tissue, OVA-induced asthma; conditions: palmitic acid 5, 25, 50 mg/kg oral, particularly the 50 mg/kg group, FIG. 22
Procedure: as §4

CCCCCCCCCCCCCCCC(=O)O [palmitic acid]
dose-dependently decreased: Th17-related cytokine TNF-α (cDNA level, RT-PCR) (TNF-α) | Th17-related cytokine IL-6 (cDNA level, RT-PCR) (IL-6 [1]) | Th2-related cytokine IL-13 (cDNA level, RT-PCR) (IL-13) | expression level of IFN-γ (IFN-γ)
decreased: expression level of IL-12p40 (IL-12p40) | expression level of IL-6 (IL-6 [2]) | expression level of IL-4 (IL-4)
